Assay results from ChEMBL document CHEMBL1201862, “PubChem BioAssay data set” (2004).
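Grown in 96-well plates, cells were treated for 48 hours with each compound at five concentrations. Insufficient inhibition: endpoint recorded as highest concentration tested. Abbreviation: GI50, concentration required for 50% inhibition of growth.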 The source made the active and inactive calls. No stated cut-off is given here; in the data, active = GI50 up to about 1.1 µM and inactive = higher.

Key:
Experiment in all cases: NCI tumour cell line growth inhibition, 48 h
[1] = tested on: HCC 2998
[2] = tested on: U-251
[3] = tested on: CAKI-1
[4] = tested on: UACC-62
[5] = tested on: SK-MEL-28
[6] = tested on: OVCAR-3
[7] = tested on: SK-MEL-5
[8] = tested on: DU-145
[9] = tested on: MDA-MB-231
[10] = tested on: UACC-257
[11] = tested on: OVCAR-8
[12] = tested on: BT-549
[13] = tested on: HOP-92
[14] = tested on: OVCAR-4
[15] = tested on: UO-31
[16] = tested on: SF-539
[17] = tested on: SR
[18] = tested on: OVCAR-5
[19] = tested on: HT-29
[20] = tested on: RPMI-8226

Measured: GI50

COc1cccc2cc(C(=O)O)c(=O)oc12
inactive: [1] > 100 µM | [2] > 100 µM | [3] > 100 µM | [4] 63.7 µM | [5] > 100 µM | [6] > 100 µM | [7] > 100 µM | [8] > 100 µM | [9] > 100 µM | [10] > 100 µM | [11] > 100 µM | [12] > 100 µM | [13] > 100 µM | [14] > 100 µM | [15] > 100 µM | [16] > 100 µM | [17] > 100 µM | [18] > 100 µM | [19] > 100 µM | [20] > 100 µM

CCOC(=O)/C(C(N)=O)=C(/O)c1cnccn1
inactive: [1] > 100 µM | [2] > 100 µM | [3] > 100 µM | [4] > 100 µM | [5] > 100 µM | [6] > 100 µM | [7] > 100 µM | [8] > 100 µM | [9] > 100 µM | [10] > 100 µM | [11] > 100 µM | [12] > 100 µM | [13] > 100 µM | [14] > 100 µM | [15] > 100 µM | [16] > 100 µM | [17] > 100 µM | [18] > 100 µM | [19] > 100 µM | [20] > 100 µM
